Test results: patent publication US11865110B2, “Thrombin inhibitors, formulations, and uses thereof” (VERSEON INTERNATIONAL CORPORATION, priority 2018, dated 2024)

Assays:
thrombin = target: T1, thrombin (Homo sapiens, UniProt P00734); experiment: Human Thrombin Generation Assay (TGA); format: biochemical; conditions: concentration that reduces endogenous thrombin potential AUC by 50%; human plasma; read-out: ETP EC50
T1 construct: from tissue; host or cells: human plasma (thrombin generated in situ by tissue factor, phospholipids and CaCl2)
Method: Results for the human thrombin generation assay (TGA; not to be confused with “thermogravimetric analysis” which is used elsewhere and carries the same acronym. One of skill in the art will appreciate which meaning is intended based on context of the surrounding technical information.) were generated as follows. In a 96-well plate, 4 μL of 100, 33.3, 11.1, 3.7, 1.23, 0.41, 0.137, and 0.046 μM solutions of the test compounds in DMSO were added to sequential wells filled with 68 μL of a “TGA Working Solution.” See description of this solution as well as other relevant solutions below. The plate was incubated at room temperature for 10 minutes, whereupon 8 μL of warm “Substrate Solution” was added to each well, resulting in a 500 μM concentration of the substrate, Z-GGR-AMC (Z-Gly-Gly-Arg-7-amino-4-methylcoumarin·HCl), in each well. Fluorescence intensity data (Ex/Em 380/460 nm) collection began immediately using a Cytation™ or Synergy™ H1 96-well plate reader set to incubate the plate at 37° C. over the data collection time of 90 minutes following double-orbital shaking for a period of 4 seconds. Test compounds were measured parallel to blanks and controls, as well as to wells of the substrate in DMSO at various concentrations (2.50, 0.833, 0.278, 0.093 mM) in the buffers to generate a standard fluorescence curve. Data values were computed automatically, including the ETP EC50 value of the AUC, which is the concentration of the compound that reduces endogenous thrombin potential AUC by 50%.
The various solutions were prepared as follows. A HEPES/NaCl Assay buffer was made by combining 7.5 mL of 5M NaCl, 1.19 g 4-(2-hydroxyethyl)piperazine-1-ethanesulfonic acid (HEPES) and 230 mL of water. An “Innovin Master Solution” was made by combining 20 μL of Siemens Dade Innovin recombinant tissue factor and thromboplastin with 50 μL of 0.5 mM phospholipid-TGT acquired from DiaPharma® in 450 μL of the above HEPES/NaCl Assay buffer. This solution was then vortexed for a few seconds. Next the “Substrate Master Solution” was made by adding 3.2 mL DMSO to 100 mg of Z-GGR-AMC (Z-Gly-Gly-Arg-7-amino-4-methylcoumarin·HCl) and vortexing in a polystyrene tube. This solution was stored at −20° C. A “TGA Working Solution” was prepared by adding 6.2 mL of human plasma, 50 μL of the Innovin Master Solution, and 80 μL of phospholipids to 2.6 mL of HEPES/NaCl Assay buffer. A “Substrate Working Solution” was made immediately before addition to the assay plate by adding 200 μL of the above “Substrate Master Solution” to a pre-warmed (37° C.) mixture of 1.46 mL of HEPES/NaCl Assay buffer and 340 μL of 1M CaCl2).
For additional description of this assay, please see Robert, S. et al. ‘Is thrombin generation the new rapid, reliable and relevant pharmacological tool for the development of anticoagulant drugs?’2009, Pharmacol Res 59:160-6 as well as Hemker, H. C. et al. ‘Calibrated automated thrombin generation measurement in clotting plasma.’ 2003, Pathophysiol Haemost Thromb 33:4-15.

[1] = Rat liver microsome stability; format: in vitro ADME; conditions: Sprague-Dawley, pH 7.4; SD rat liver microsomes 0.5 mg/mL, NADPH, 37° C.; lower measurable bound 5
Method: (§1) In a 96-well Nunc™ plate, 1.5 μL of a 200 μM solution of the test compound in DMSO were placed in a well. This plate, the “Reaction Plate,” was then warmed to 37° C. in an oven. In a second 96-well Nunc™ plate, the “Quench Plate,” six wells were filled with 180 μL of an internal standard quench solution composed of 100 nM diclofenac in acetonitrile. These six wells correspond to the six time points for data collection: 0, 0.5, 5, 15, 30, and 60 minutes. “Assay Buffer” was prepared by combining 6.96 g potassium phosphate, dibasic, 1.36 g potassium phosphate, monobasic, and 0.30 g of magnesium chloride hexahydrate, then diluting to a final concentration of 500 mL in water and adjusting to pH 7.4, as needed. Assay Buffer was warmed to 37° C., and 12 mL were added to a 10-mg vial of NADPH. Then 300 μL of a 20 mg/mL liver microsome suspension were added to yield a 0.5 mg/mL liver microsome suspension. 300 μL of this liver microsome suspension was then added to the test compound solution in the Reaction Plate and mixed thoroughly with a pipette tip. At each time point, 30 μL of this mixture was transferred to the corresponding well of the Quench Plate. In between time points, the Reaction Plate was kept sealed and warmed in an incubator at 37° C. When the last time point had been completed, the quench plate was centrifuged at 4° C. at 1000×g for 10 minutes. Afterwards, 50 μL of the supernatant of each well was transferred to unique, corresponding wells of a 96-well Costar® plate, the “Analysis Plate,” filled with 150 μL of 50:50 acetonitrile:HyClone™ water. The Analysis Plate was then sealed with a pre-slit plate seal before analysis via an appropriate LCMS method with a 10 μL injection. The abstracted AUC data were then automatically plotted to calculate intrinsic clearance in μL/min/mg. This experiment was run alongside a positive and negative control. Due to the parameters of this procedure, one of skill in the art will appreciate that this assay has a lower measurable bound of 5 μL/min/mg; therefore, certain compounds have their clearances labeled as ≤5 μL/min/mg.

[2] = Mouse liver microsome stability; format: in vitro ADME, mouse (CD-1); conditions: pH 7.4; CD-1 mouse liver microsomes 0.5 mg/mL, NADPH, 37° C.; lower measurable bound 5
Method: as §1

Row | EC50 (thrombin) [nM] | microsomal CLint at 1 µM [1] [µL/min/mg] | microsomal CLint at 1 µM [2] [µL/min/mg] | Structure (SMILES)
1 | 1400 | 10 | 29 | CC(C)(C)C(=O)n1nc(-c2cccn(CCCC(=O)O)c2=O)cc1NCc1ccc(Cl)s1 [Compound 5, 4-[3-(5-{[(5-chlorothiophen-2-yl)methyl]amino}-1-(2,2-dimethylpropanoyl)-1H-pyrazol-3-yl)-2-oxo-1,2-dihydropyridin-1-yl]butanoic acid]
2 | 430 | ≤ 5 | 11 | CC(C)(N)Cn1cccc(-c2cc(NCc3ccc(Cl)s3)n(C(=O)c3ccoc3)n2)c1=O [Compound 9, 1-(2-amino-2-methylpropyl)-3-(5-{[(5-chlorothiophen-2-yl)methyl]amino}-1-(furan-3-carbonyl)-1H-pyrazol-3-yl)-1,2-dihydropyridin-2-one]
3 | 930 to 1700 | ≤ 5 | 5 to 11 | CC(C)(C)C(=O)n1nc(-c2cccn(CCC(=O)O)c2=O)cc1NCc1ccc(Cl)s1 [Compound 1, 3-[3-(5-{[(5-chlorothiophen-2-yl)methyl]amino}-1-(2,2-dimethylpropanoyl)-1H-pyrazol-3-yl)-2-oxo-1,2-dihydropyridin-1-yl]propanoic acid]
4 | > 100000 | ≤ 5 | ≤ 5 | O=C(O)CCn1cccc(-c2cc(NCc3ccc(Cl)s3)[nH]n2)c1=O [Compound 2, 3-[3-(5-{[(5-chlorothiophen-2-yl)methyl]amino}-1H-pyrazol-3-yl)-2-oxo-1,2-dihydropyridin-1-yl]propanoic acid]
5 | 1400 to 2100 | – | ≤ 5 | O=C(O)CCn1cccc(-c2cc(NCc3ccc(Cl)s3)n(C(=O)c3ccoc3)n2)c1=O [Compound 12, 3-[3-(5-{[(5-chlorothiophen-2-yl)methyl]amino}-1-(furan-3-carbonyl)-1H-pyrazol-3-yl)-2-oxo-1,2-dihydropyridin-1-yl]propanoic acid]
6 | > 100000 | ≤ 5 | ≤ 5 | O=C(O)Cn1cccc(-c2cc(NCc3ccc(Cl)s3)[nH]n2)c1=O [Compound 3, 2-[3-(5-{[(5-chlorothiophen-2-yl)methyl]amino}-1H-pyrazol-3-yl)-2-oxo-1,2-dihydropyridin-1-yl]acetic acid]
7 | 960 | 14 | 31 | CCC(C)(C)C(=O)n1nc(-c2cccn(CCC(=O)O)c2=O)cc1NCc1ccc(Cl)s1 [Compound 11, 3-[3-(5-{[(5-chlorothiophen-2-yl)methyl]amino}-1-(2,2-dimethylbutanoyl)-1H-pyrazol-3-yl)-2-oxo-1,2-dihydropyridin-1-yl]propanoic acid]
8 | 990 | – | 100 | CC(C)(C)C(=O)n1nc(-c2cccn(CCC(N)=O)c2=O)cc1NCc1ccc(Cl)s1 [Compound 8, 3-[3-(5-{[(5-chlorothiophen-2-yl)methyl]amino}-1-(2,2-dimethylpropanoyl)-1H-pyrazol-3-yl)-2-oxo-1,2-dihydropyridin-1-yl]propanamide]
9 | 2800 to 6200 | ≤ 5 | ≤ 5 | CC(C)(C)C(=O)n1nc(-c2cccn(CC(=O)O)c2=O)cc1NCc1ccc(Cl)s1 [Compound 4, 2-[3-(5-{[(5-chlorothiophen-2-yl)methyl]amino}-1-(2,2-dimethylpropanoyl)-1H-pyrazol-3-yl)-2-oxo-1,2-dihydropyridin-1-yl]acetic acid]
